Data published in patent US20230338316A1, “ABBAPOLINS AS INHIBITORS AND DEGRADERS OF POLO-LIKE KINASES” (UNIVERSITY OF SOUTH CAROLINA, priority 2022, published 2023).

Assays:
PLK1 PBD (367-603) = biological target: T1, PLK1 PBD (367-603) (Homo sapiens, UniProt P53350); assay: Fluorescence polarization assay, PLK1 PBD; format: binding; details: for IC50: fluorescence polarization, read-out: PLK1 PBD IC50
T1 construct: PLK1 PBD (367-603) and PLK3 PBD (335-646) proteins were obtained from BPS Biosciences Inc; purchased BPS Biosciences Inc. (San Diego, CA)
T1 sequence (P53350 367-603): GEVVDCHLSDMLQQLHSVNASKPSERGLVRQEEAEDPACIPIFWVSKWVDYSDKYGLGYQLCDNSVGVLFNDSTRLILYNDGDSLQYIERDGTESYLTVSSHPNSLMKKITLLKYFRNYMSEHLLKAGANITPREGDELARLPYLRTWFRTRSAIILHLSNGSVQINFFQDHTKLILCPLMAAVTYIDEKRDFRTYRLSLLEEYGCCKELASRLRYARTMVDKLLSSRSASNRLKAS
Procedure: (§1) Materials were dissolved in DMSO (10 mM) and diluted from 10 nM to 600 μM (maximum of 6% DMSO tolerance in the assay). PLK1 PBD (367-603) and PLK3 PBD (335-646) proteins were obtained from BPS Biosciences Inc. (San Diego, CA); 17 ng PLK1 and 156 ng PLK3 were used per reaction. The fluorescein-tracer phospho-peptides (MAGPMQS[pT]PLNGAKK (SEQ ID NO: 1) for PLK1, and GPLATS[pT]PKNG (SEQ ID NO: 2) for PLK3) were used at a final concentration of 10 nM. Incubation was carried out at room temperature for 45 minutes. Fluorescence was measured using a DTX 880 plate reader and Multimode Analysis software (Beckman Coulter, Brea, CA). The polarization values in millipolarization (mP) units were measured at an excitation wavelength of 488 nm and an emission wavelength of 535 nm. Each data point was performed in triplicate for every experiment, and experiments were performed at least three times. An IC50 value for each compound was calculated from linear regression analysis of the plots.

[1] = test system: PC3 prostate cancer cells; assay: MTT cell viability assay, PC3; format: cell-based; details: MTT
Procedure: PC3 prostate cancer cells were maintained in DMEM (Invitrogen™, Carlsebad, CA) supplemented with 10% FBS or Corning® Nu-serum™(BD™ Biosciences, Franklin Lakes, NJ) and 1% penicillin/streptomycin (Invitrogen™) in a humidified incubator and 5% CO2 at 37° C.
Exponentially growing cells were plated in 96-well dishes. Dose response curves were used to treat cells for 72 hours with inhibitors. Following the three-day treatment, cell viability was measured using the MTT (3-(4,5-dimethylthiazol-2-yl)-2,5-diphenyltetrazolium bromide) colorimetric assay. Cells were incubated for 3 hours with MTT allowing viable cells to metabolize the tetrazolium dye to a purple colored solution. Absorbance measurements (595 nm) were quantified using a DTX 880 plate reader and IC50 values were generated for FLIPs.

PLK3 PBD (335-646) = biological target: T2, PLK3 PBD (335-646) (Homo sapiens, UniProt Q9H4B4); assay: Fluorescence polarization assay, PLK3 PBD; format: binding
T2 construct: PLK1 PBD (367-603) and PLK3 PBD (335-646) proteins were obtained from BPS Biosciences Inc; purchased BPS Biosciences Inc. (San Diego, CA)
T2 sequence (Q9H4B4 335-646): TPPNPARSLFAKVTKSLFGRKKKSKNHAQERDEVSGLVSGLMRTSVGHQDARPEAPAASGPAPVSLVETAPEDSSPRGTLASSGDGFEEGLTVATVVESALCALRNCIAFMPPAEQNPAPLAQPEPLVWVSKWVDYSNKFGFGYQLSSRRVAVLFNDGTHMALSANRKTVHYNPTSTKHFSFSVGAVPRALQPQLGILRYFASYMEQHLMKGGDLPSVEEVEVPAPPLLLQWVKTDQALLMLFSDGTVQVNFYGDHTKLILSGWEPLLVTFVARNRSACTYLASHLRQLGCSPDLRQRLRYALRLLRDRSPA
Procedure: as §1

[2] = test system: SH-SY5Y neuroblastoma cells overexpressing PLK1; assay: Cell viability assay in neuroblastoma cells; format: cell-based; details: Homo sapiens, SH-SY5Y
Procedure: (§2) Abbapolin compounds activity was evaluated in neuroblastoma cells. […] Further, abbapolins induced PLK1 degradation in SH-SY5Y cells (FIG. 14-16).

LOX IMVI = assay: Single dose cell viability assay, LOX IMVI; format: cell-based; details: single dose 25 μM, 48 hours
Procedure: (§3) Lead abbapolin compounds were tested in multiple cancer cell lines, including non-small cell lung cancer (NSCLC) cells, melanoma cells, colon cancer cells, central nervous system (CNS) cancer cells, prostate cancer cells, renal cancer cells, and breast cancer cells. Each of these cancer cells lines were sensitive to the lead abbapolin compounds in a cell viability assay, including 6184 (Table 3), 6277 (Table 4), 6279 (Table 5), 6355 (Table 6), 6359 (Table 7), 6369 (Table 8), and 6421 (Table 9).

HCT-15 = assay: Single dose cell viability assay, HCT-15; format: cell-based; details: HCT-15 (Colon), single dose 25 μM
Procedure: as §3

MOLT-4 = assay: Single dose cell viability assay, MOLT-4; format: cell-based; details: MOLT-4 (Leukemia), single dose 25 μM
Procedure: as §3

NCI-H460 = assay: Single dose cell viability assay, NCI-H460; format: cell-based; details: NCI-H460 (NSCLC), single dose 25 μM
Procedure: as §3

RPMI-8226 = assay: Single dose cell viability assay, RPMI-8226; format: cell-based; details: RPMI-8226 (Leukemia), single dose 25 μM
Procedure: as §3

CCRF-CEM = assay: Single dose cell viability assay, CCRF-CEM; format: cell-based; details: CCRF-CEM (Leukemia), single dose 25 μM
Procedure: as §3

HCT-116 = assay: Single dose cell viability assay, HCT-116; format: cell-based; details: HCT-116 (Colon), single dose 25 μM
Procedure: as §3

K-562 = assay: Single dose cell viability assay, K-562; format: cell-based; details: K-562 (Leukemia), single dose 25 μM
Procedure: as §3

SR = assay: Single dose cell viability assay, SR; format: cell-based; details: SR (Leukemia), single dose 25 μM
Procedure: as §3

A549/ATCC = assay: Single dose cell viability assay, A549/ATCC; format: cell-based; details: A549/ATCC (NSCLC), single dose 25 μM
Procedure: as §3

PLK1 = PLK1 (Homo sapiens, UniProt P53350); assay: PLK1 degradation in SH-SY5Y cells; format: cell-based; design: endogenous in cells
Chain of PLK1 (P53350 whole entry): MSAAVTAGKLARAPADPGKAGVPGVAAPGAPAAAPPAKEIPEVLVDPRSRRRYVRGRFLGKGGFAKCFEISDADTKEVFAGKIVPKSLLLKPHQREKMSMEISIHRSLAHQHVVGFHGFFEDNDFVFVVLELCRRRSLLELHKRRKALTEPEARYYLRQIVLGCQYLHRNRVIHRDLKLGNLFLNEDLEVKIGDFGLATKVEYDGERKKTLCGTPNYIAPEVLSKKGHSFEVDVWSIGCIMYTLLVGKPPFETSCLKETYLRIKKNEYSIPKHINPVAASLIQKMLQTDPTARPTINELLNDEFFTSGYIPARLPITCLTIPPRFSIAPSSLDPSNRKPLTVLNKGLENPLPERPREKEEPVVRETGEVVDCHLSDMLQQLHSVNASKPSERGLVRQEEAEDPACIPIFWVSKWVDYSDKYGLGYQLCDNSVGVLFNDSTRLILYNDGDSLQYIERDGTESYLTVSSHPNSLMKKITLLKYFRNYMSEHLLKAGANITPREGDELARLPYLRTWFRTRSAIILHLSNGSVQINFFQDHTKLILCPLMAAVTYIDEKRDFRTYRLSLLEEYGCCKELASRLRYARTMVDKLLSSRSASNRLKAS
Procedure: as §2

HOP-92 = assay: Single dose cell viability assay, HOP-92; format: cell-based; details: HOP-92 (NSCLC), single dose 25 μM
Procedure: as §3

U251 = assay: Single dose cell viability assay, U251; format: cell-based; details: U251 (CNS), single dose 25 μM
Procedure: as §3

SF-295 = assay: Single dose cell viability assay, SF-295; format: cell-based; details: SF-295 (CNS), single dose 25 μM
Procedure: as §3

NCI-H522 = assay: Single dose cell viability assay, NCI-H522; format: cell-based; details: NCI-H522 (NSCLC), single dose 25 μM
Procedure: as §3

SK-MEL-2 = assay: Single dose cell viability assay, SK-MEL-2; format: cell-based; details: SK-MEL-2 (Melanoma), single dose 25 μM
Procedure: as §3

MDA-MB-468 = assay: Single dose cell viability assay, MDA-MB-468; format: cell-based; details: MDA-MB-468 (Breast), single dose 25 μM
Procedure: as §3

SK-MEL-5 = assay: Single dose cell viability assay, SK-MEL-5; format: cell-based; details: SK-MEL-5 (Melanoma), single dose 25 μM
Procedure: as §3

UACC-62 = assay: Single dose cell viability assay, UACC-62; format: cell-based; details: UACC-62 (Melanoma), single dose 25 μM
Procedure: as §3

CCCCCCNC(=O)c1ccc(C(=O)Nc2ccc(C)cc2C(=O)O)cc1 [compound 6189]
PLK1 PBD % inhi. (PLK1 PBD (367-603); at 400 μM): 37% inhi. at

CCCCCCCCc1ccc(C(=O)Nc2ccccc2P(=O)(O)O)cc1 [compound 6286]
IC50 (PLK1 PBD (367-603)): 53 µM | IC50 ([1]; 72 h): 26.6 µM | IC50 ([1]; 72 hours): 25.1 µM

CCCCCCCCc1ccc(C(=O)Nc2ccc(C)cc2C(=O)O)cc1OC [compound 6280]
IC50 (PLK1 PBD (367-603)): > 100 µM | IC50 (PLK3 PBD (335-646)): > 200 µM | IC50 ([1]; 72 h): 25.9 µM | IC50 ([1]; 72 hours): 18.3 µM

CCCCCCCCc1ccc(C(=O)Nc2cccc(CP(=O)(O)O)c2)cc1 [compound 6195]
IC50 (PLK1 PBD (367-603)): 51.5 µM | IC50 ([1]; 72 h): 20.4 ± 4.4 µM

CCCCCCCCN(C)c1ccc(C(=O)Nc2ccc(C)cc2C(=O)O)cc1 [compound 6172]
IC50 (PLK1 PBD (367-603)): > 600 µM | IC50 ([1]; 72 h): 28 µM

CCCCCCCCc1cccc(CC(=O)Nc2ccc(C)cc2C(=O)O)c1 [compound 6277]
IC50 (PLK1 PBD (367-603)): 19.7 µM | IC50 (PLK3 PBD (335-646)): 29.4 µM | IC50 [2]: 5.25 ± 0.5 µM | inhibition at 25 µM (LOX IMVI; Homo sapiens, LOX IMVI, from cells remaining): 96.4% | Cells Remaining (%) (LOX IMVI; LOX IMVI (Melanoma)): 3.4% | Cells Remaining (%) (HCT-15): 13.2% | Cells Remaining (%) (MOLT-4): 17.93% | Cells Remaining (%) (NCI-H460): 20.45% | Cells Remaining (%) (RPMI-8226): 25.43% | Cells Remaining (%) (CCRF-CEM): 26.74% | Cells Remaining (%) (HCT-116): 28.14% | Cells Remaining (%) (K-562): 28.94% | Cells Remaining (%) (SR): 31.08% | Cells Remaining (%) (A549/ATCC): 31.38% | PLK1 degradation (PLK1): degradation of PLK1

CCCCCCCOc1cccc(S(=O)(=O)Nc2ccc(C)cc2C(=O)O)c1 [compound 6355]
Cells Remaining (%) (HOP-92): 57.02% | Cells Remaining (%) (HCT-15): 49.94% | Cells Remaining (%) (RPMI-8226): 51.41% | Cells Remaining (%) (CCRF-CEM): 67.09% | Cells Remaining (%) (U251): 64.99% | Cells Remaining (%) (SF-295): 59.2% | Cells Remaining (%) (NCI-H522): 65.09% | Cells Remaining (%) (SK-MEL-2): 30.01% | Cells Remaining (%) (MDA-MB-468): 55.12% | Cells Remaining (%) (SK-MEL-5): 59.55% | Cells Remaining (%) (UACC-62): 61.59%

Cc1ccc(C(=O)O)c(NC(=O)c2ccc(N)cc2)c1 [compound 6154]
IC50 (PLK1 PBD (367-603)): > 600 µM | IC50 ([1]; 72 h): > 120 µM
